Test results from PubChem BioAssay AID330 (DTP/NCI, 2004).
Several values for one entry are separate records, joined by “and”; a condition that tells them apart may be missing. Equal entries are not always repeated. Toxic doses and inconclusive results are not listed.

Tested on: P388 leukemia ip, CD2F1 mice, survival T/C
Experiment: NCI In Vivo Anticancer Drug Screen. Data for tumor model P388 Leukemia (intraperitoneal) in CD2F1 (CDF1) mice
Details: endpoint: median survival time, higher = longer survival
Procedure, shortened: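 Mice carrying the transplanted tumor received test compound or vehicle. Survival was recorded in each group, and the value is the treated-group measurement divided by that of the vehicle-treated control group.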

[1] = dose: 60.0 mg/kg/injection, schedule: Q01DX005 (ip), vehicle: saline
[2] = dose: 120.0 mg/kg/injection, schedule: Q01DX005 (ip), vehicle: saline
[3] = dose: 240.0 mg/kg/injection, schedule: Q01DX005 (ip), vehicle: saline
[4] = dose: 60.0 mg/kg/injection, schedule: Q01DX005 (ip), vehicle: saline with Tween-80
[5] = dose: 120.0 mg/kg/injection, schedule: Q01DX005 (ip), vehicle: saline with Tween-80
[6] = dose: 240.0 mg/kg/injection, schedule: Q01DX005 (ip), vehicle: saline with Tween-80
[7] = dose: 50.0 mg/kg/injection, schedule: Q01DX009 (ip), vehicle: Klucel (hydroxypropylcellulose) (HPC)

COc1cccc2c(=O)c(COC(C)=O)c(C)[nH]c12
T/C [1]: 112 % of control
T/C [2]: 112 % of control
T/C [3]: 112 % of control

COC(=O)C(=CNC(N)=O)C(=O)OC
T/C [4]: 96 % of control
T/C [5]: 100 % of control
T/C [6]: 94 % of control

Cc1cnnc2ccccc12
T/C (dose: 12.5 mg/kg/injection, schedule: Q01DX009 (ip), vehicle: saline with Tween-80): 98 % of control
T/C (dose: 25.0 mg/kg/injection, schedule: Q01DX009 (ip), vehicle: saline with Tween-80): 106 % of control
T/C (dose: 50.0 mg/kg/injection, schedule: Q01DX009 (ip), vehicle: saline with Tween-80): 106 % of control

CCC1(CC)SC(C)(C)N(C=O)C1C(=O)O (stereo not drawn)
T/C (dose: 100.0 mg/kg/injection, schedule: Q04DX002 (ip), vehicle: saline with Tween-80): 99 % of control
T/C (dose: 200.0 mg/kg/injection, schedule: Q04DX002 (ip), vehicle: saline with Tween-80): 104 % of control
T/C (dose: 400.0 mg/kg/injection, schedule: Q04DX002 (ip), vehicle: saline with Tween-80): 100 % of control

O=C1N=C2SCCCN2C1(c1ccccc1)c1ccccc1
T/C [4]: 97 % of control
T/C [5]: 92 % of control
T/C [6]: 100 % of control

Cn1c(-c2ccccc2)c2c(c1-c1ccccc1)C(=O)c1c(c(-c3ccccc3)n(C)c1-c1ccccc1)C2=O
T/C [7]: 94 % of control
T/C (dose: 100.0 mg/kg/injection, schedule: Q01DX009 (ip), vehicle: Klucel (hydroxypropylcellulose) (HPC)): 92 % of control
T/C (dose: 200.0 mg/kg/injection, schedule: Q01DX009 (ip), vehicle: Klucel (hydroxypropylcellulose) (HPC)): 97 % of control

COC(=O)C(C)NC(=O)C(C)NC(=O)c1cnc2ccccc2n1 (stereo not drawn)
T/C [4]: 97 % of control
T/C [5]: 99 % of control
T/C [6]: 111 % of control

CC1(O)/C=C\C=C(\CO)C2CC(C)(C)C2(O)CC1 (stereo not drawn)
T/C (dose: 6625.0 micrograms/kg/injection, schedule: Q01DX005 (ip), vehicle: Klucel (hydroxypropylcellulose) (HPC)): 100 % of control
T/C (dose: 13250.0 micrograms/kg/injection, schedule: Q01DX005 (ip), vehicle: Klucel (hydroxypropylcellulose) (HPC)): 98 % of control
T/C (dose: 26500.0 micrograms/kg/injection, schedule: Q01DX005 (ip), vehicle: Klucel (hydroxypropylcellulose) (HPC)): 94 % of control
T/C (dose: 53000.0 micrograms/kg/injection, schedule: Q01DX005 (ip), vehicle: Klucel (hydroxypropylcellulose) (HPC)): 87 % of control

C=C1C(=C)C2OC1c1cc3c(cc12)C(=O)C=CC3=O
T/C (dose: 12.5 mg/kg/injection, schedule: Q01DX005 (ip), vehicle: saline with Tween-80): 100 % of control
T/C (dose: 25.0 mg/kg/injection, schedule: Q01DX005 (ip), vehicle: saline with Tween-80): 91 % of control

CS(=O)(=O)OCCN(CCOS(C)(=O)=O)c1cccc(Cl)c1
T/C (dose: 1.25 mg/kg/injection, schedule: Q01DX009 (ip), vehicle: other): 95 % of control
T/C (dose: 2.5 mg/kg/injection, schedule: Q01DX009 (ip), vehicle: other): 122 % of control
T/C (dose: 10.0 mg/kg/injection, schedule: Q01DX009 (ip), vehicle: other): 186 % of control

COC(=O)c1nnn(-c2ccc(S(N)(=O)=O)cc2)c1N
T/C [1]: 98 % of control
T/C [2]: 104 % of control
T/C [3]: 98 % of control

O=C1CSC(c2ccc(O)cc2)N1c1nncs1 (stereo not drawn)
T/C [4]: 107 % of control
T/C [5]: 104 % of control
T/C [6]: 98 % of control

COc1cc(OC)c(C2SCC(=O)N2c2nnc(C(F)(F)F)s2)cc1OC (stereo not drawn)
T/C [4]: 100 % of control
T/C [5]: 99 % of control
T/C [6]: 98 % of control

C=C1CC(NCC(=O)OCC)=C(O)C1=O
T/C (dose: 25.0 mg/kg/injection, schedule: Q01DX005 (ip), vehicle: Klucel (hydroxypropylcellulose) (HPC)): 93 % of control
T/C (dose: 50.0 mg/kg/injection, schedule: Q01DX005 (ip), vehicle: Klucel (hydroxypropylcellulose) (HPC)): 90 % of control
T/C (dose: 100.0 mg/kg/injection, schedule: Q01DX005 (ip), vehicle: Klucel (hydroxypropylcellulose) (HPC)): 94 % of control

CCOC(=O)Nc1cc2c(c(N)n1)N=C(CN(C)c1ccccc1)CN2
T/C (dose: 1.56 mg/kg/injection, schedule: Q01DX009 (ip), vehicle: Klucel (hydroxypropylcellulose) (HPC)): 112 % of control and 123 % of control
T/C (dose: 3.12 mg/kg/injection, schedule: Q01DX009 (ip), vehicle: Klucel (hydroxypropylcellulose) (HPC)): 100 % of control and 111 % of control
T/C (dose: 6.25 mg/kg/injection, schedule: Q01DX009 (ip), vehicle: Klucel (hydroxypropylcellulose) (HPC)): 106 % of control and 123 % of control
T/C (dose: 12.5 mg/kg/injection, schedule: Q01DX009 (ip), vehicle: Klucel (hydroxypropylcellulose) (HPC)): 124 % of control
T/C (dose: 25.0 mg/kg/injection, schedule: Q01DX009 (ip), vehicle: Klucel (hydroxypropylcellulose) (HPC)): 109 % of control and 123 % of control
T/C [7]: 98 % of control
T/C (dose: 67.0 mg/kg/injection, schedule: Q01DX001 (ip), vehicle: Klucel (hydroxypropylcellulose) (HPC)): 195 % of control
T/C (dose: 100.0 mg/kg/injection, schedule: Q01DX001 (ip), vehicle: Klucel (hydroxypropylcellulose) (HPC)): 178 % of control

CC(=O)NC(=O)NC(C)=O
T/C (dose: 100.0 mg/kg/injection, schedule: Q01DX001 (ip), vehicle: methylcellulose (MC)): 100 % of control
T/C (dose: 200.0 mg/kg/injection, schedule: Q01DX001 (ip), vehicle: methylcellulose (MC)): 108 % of control
T/C (dose: 400.0 mg/kg/injection, schedule: Q01DX001 (ip), vehicle: methylcellulose (MC)): 100 % of control

CC(/C=C/C1OC(=O)C=CC1C)=C\C(C)C/C=C/C(C)=C/C(C)C(=O)C(C)C(O)C(C)C/C(C)=C/C(=O)O (stereo not drawn)
T/C (dose: 2.5 micrograms/kg/injection, schedule: Q01DX005 (ip), vehicle: saline + alcohol): 101 % of control
T/C (dose: 5.0 micrograms/kg/injection, schedule: Q01DX005 (ip), vehicle: saline + alcohol): 99 % of control
T/C (dose: 10.0 micrograms/kg/injection, schedule: Q01DX005 (ip), vehicle: saline + alcohol): 106 % of control
T/C (dose: 20.0 micrograms/kg/injection, schedule: Q01DX005 (ip), vehicle: saline + alcohol): 100 % of control
T/C (dose: 100.0 micrograms/kg/injection, schedule: Q01DX005 (ip), vehicle: alcohol): 150 % of control
T/C (dose: 200.0 micrograms/kg/injection, schedule: Q01DX005 (ip), vehicle: alcohol): 159 % of control

C[Si]1(C)CCCCC1
T/C (dose: 50.0 mg/kg/injection, schedule: Q01DX009 (ip), vehicle: saline): 102 % of control
T/C (dose: 100.0 mg/kg/injection, schedule: Q01DX009 (ip), vehicle: saline): 95 % of control
T/C (dose: 200.0 mg/kg/injection, schedule: Q01DX009 (ip), vehicle: saline): 101 % of control
T/C (dose: 400.0 mg/kg/injection, schedule: Q01DX009 (ip), vehicle: saline): 102 % of control
